Among the data in patent publication US7067537B2, “Substituted thiazole derivatives bearing 3-pyridyl groups, process for preparing the same and use thereof” (Takeda Pharmaceutical Company Limited, priority 2000, dated 2006) are IC50 and melting point values, retold here.

In one data set the target is T1, Rat C17,20-lyase (Rattus norvegicus, UniProt P11715).
T1 construct: The orchis was homogenized and centrifuged to prepare a microsome; from tissue; host or cells: testis (orchis) microsomes of 13-week-old male SD rat
T1 sequence (P11715 1-507): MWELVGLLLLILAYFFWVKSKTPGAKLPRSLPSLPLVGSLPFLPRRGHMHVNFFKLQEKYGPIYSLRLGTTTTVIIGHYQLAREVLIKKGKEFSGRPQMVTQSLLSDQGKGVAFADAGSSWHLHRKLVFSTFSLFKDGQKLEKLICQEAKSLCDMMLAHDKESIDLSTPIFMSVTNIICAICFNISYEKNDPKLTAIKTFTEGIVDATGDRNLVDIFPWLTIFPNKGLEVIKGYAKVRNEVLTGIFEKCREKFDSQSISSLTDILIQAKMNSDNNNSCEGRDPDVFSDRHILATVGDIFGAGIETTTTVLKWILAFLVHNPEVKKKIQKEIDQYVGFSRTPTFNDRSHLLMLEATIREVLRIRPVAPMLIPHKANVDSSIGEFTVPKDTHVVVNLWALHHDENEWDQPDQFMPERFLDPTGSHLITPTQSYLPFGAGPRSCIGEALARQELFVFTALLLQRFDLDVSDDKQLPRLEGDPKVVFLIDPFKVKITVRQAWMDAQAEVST
The data set is described as follows: Assay of steroid C17,20-lyase-inhibitory activity in rat (testis microsome, TLC of 3H-labelled products). The class given is biochemical. The note with it: microsome from orchis of 13-week-old male SD rat; [1.2-3H]-17α-hydroxyprogesterone 10 nM, NADPH; pH 7.4; 37° C., 7 min; read-out: In vitro enzyme inhibitory activity (IC50) Rat C17,20-lyase. As for the experimental part:
Assay of Steroid C17,20-lyase-inhibitory Activity in Rat
The assay was performed according to The Prostate, Vol. 26, 140–150 (1995). The orchis was removed from 13-week-old male SD rat. The orchis was homogenized and centrifuged to prepare a microsome. The [1.2-^3H]-17α-hydroxyprogesterone having a final concentration of 10 nM, NADPH solution and the test compound were was dissolved in a 100 mM phosphate buffer solution (10 μl, pH 7.4). Microsome protein (7 μg/10 μl) was added and the mixture was incubated at 37° C. for 7 min. Ethyl acetate (40 μl) was added and the mixture was centrifuged, and the substrate and the product (androstenedione and testosterone) in the supernatant were separated by silica gel thin layer chromatography (TLC). The spot was detected and quantitatively assayed by a BAS 2000 bioimage analyzer. Taking the production amount when the test compound was not added (control) as 100%, the concentration (IC50) of the compound necessary for 50% inhibition of the product amount relative to the control was calculated.

SMILES strings stand for the structures. Where a name gives a salt, the structure may show the parent alone.

With `Cc1ccc(-c2csc(-c3cnccc3C)n2)cc1` [Compound 103], the melting point turned out to be 98 °C. Also, the IC50 at Rat C17,20-lyase is below 0.01 µM. As for `CNC(=O)c1cc(-c2nc(-c3cnccc3C)cs2)ccc1Cl` [Example 34, 2-chloro-N-methyl-5-[4-(4-methylpyridin-3-yl)-1,3-thiazol-2-yl]benzamide], the melting point fell in the range of 127 to 129 °C. Turning to `COc1cccc(-c2csc(-c3cccnc3)n2)c1` [Compound 49], on Rat C17,20-lyase, the IC50 turned out to be 0.033 µM. The compound `CS(=O)(=O)Nc1ccc(-c2csc(-c3cnccc3C(F)(F)F)n2)cc1.Cl` gave a melting point of 205 to 207 °C. `Cc1ccncc1-c1nc(-c2ccc(Cl)cc2)c(Cl)s1` [Compound 150, 3-[5-chloro-4-(4-chlorophenyl)-1,3-thiazol-2-yl]-4-methylpyridine]: the melting point turned out to be 146 °C.

Take `Cc1ccncc1-c1nc(-c2ccc(Cl)cc2)cs1` [Compound 74, 3-[4-(4-chlorophenyl)-1,3-thiazol-2-yl]-4-methylpyridine]: the melting point came to 119 °C.

Regarding `Cc1ccncc1-c1csc(-c2cc(NC=O)ccc2C)n1` [Example 37, 4-methyl-3-[4-(4-methylpyridin-3-yl)-1,3-thiazol-2-yl]phenylformamide], the melting point fell in the range of 127 to 129 °C. Consider `COc1ccncc1-c1nc(-c2ccc(C)cc2C)cs1` [Compound 85], for which, on Rat C17,20-lyase, the IC50 came out at 0.03 µM. `Cc1ccncc1-c1nc(-c2ccc(C(=O)O)cc2)cs1` [Compound 163, 4-[2-(4-methylpyridin-3-yl)-1,3-thiazol-4-yl]benzoic acid] showed a melting point above 300 °C. Consider `Cc1ccncc1-c1csc(-c2cc(C(=O)N(C)C)ccc2C)n1` [Example 31, N,N,4-trimethyl-3-[4-(4-methylpyridin-3-yl)-1,3-thiazol-2-yl]benzamide], for which the melting point was in the range of 180 to 182 °C. Still for that read-out and setting: for `Nc1ccc(-c2csc(-c3cnccc3C(F)(F)F)n2)cc1` [Compound 156, 4-{2-[4-(trifluoromethyl)pyridin-3-yl]-1,3-thiazol-4-yl}aniline] the value was 71 to 72 °C. Same read-out and setting: for `COc1ccncc1-c1nc(-c2ccc(C)cc2C)cs1` (as salt: HCl) [Compound 85] the value was 154 °C; for `Cc1ccncc1-c1nc(-c2ccc(C(N)=O)cc2)cs1` [Compound 165, 4-[2-(4-methylpyridin-3-yl)-1,3-thiazol-4-yl]benzamide], 222 to 225 °C; for `CN(C)C(=O)c1ccncc1-c1nc(-c2ccc(Cl)cc2)cs1` [Compound 146, 3-[4-(4-chlorophenyl)-1,3-thiazol-2-yl]-N,N-dimethylisonicotinamide], 195 °C. As to `COc1ccc(-c2csc(-c3cnccc3C(F)(F)F)n2)cc1` [Compound 64], the half-inhibitory concentration (IC50) on Rat C17,20-lyase is below 0.01 µM. The compound `CC(=O)Nc1cccc(-c2csc(-c3cnccc3C(F)(F)F)n2)c1.Cl` showed a melting point of 154 to 155 °C.

Consider `Cc1ccncc1-c1nc(-c2ccc(F)cc2)cs1` [Compound 78, 3-[4-(4-fluorophenyl)-1,3-thiazol-2-yl]-4-methylpyridine], for which the melting point is 129 °C. Moreover, on Rat C17,20-lyase, the IC50 is below 0.01 µM. For `CC(=O)Nc1ccc(C)c(-c2nc(-c3cnccc3C)cs2)c1` [Example 38, N-{4-methyl-3-[4-(4-methylpyridin-3-yl)-1,3-thiazol-2-yl]phenyl}acetamide], the melting point was in the range of 151 to 152 °C.

`Cc1ccncc1-c1csc(-c2ccc(F)cc2)n1` (as salt: HCl) [Compound 137, 3-[2-(4-fluorophenyl)-1,3-thiazol-4-yl]-4-methylpyridine] registered a melting point of 180 to 183 °C. For `Cc1ccncc1-c1csc(-c2cc(C(=O)N3CCCC3)ccc2C)n1` [Example 32, 4-methyl-3-{2-[2-methyl-5-(pyrrolidine-1-ylcarbonyl)phenyl]-1,3-thiazol-4-yl}pyridine], the melting point fell in the range of 149 to 150 °C. On the same count and under the same terms, the same measure for `Fc1ccc(-c2nc(-c3cccnc3)cs2)cc1` (as salt: HBr) [Compound 136]: 225 to 227 °C; for `CNC(=O)c1ccncc1-c1nc(-c2ccc(Cl)cc2)cs1` [Compound 148]: 205 °C; for `Cc1ccncc1-c1csc(-c2cccc(C(=O)N(C)C)c2)n1` [Example 27, N,N-dimethyl-3-[4-(4-methylpyridin-3-yl)-1,3-thiazol-2-yl]benzamide]: 106 to 108 °C. Same read-out and setting: the same measure for `COc1cccc(-c2csc(-c3cccnc3)n2)c1` (as salt: HBr) [Compound 49]: 231 to 233 °C. On the same count and under the same terms, the same measure for `NC(=O)c1ccncc1-c1nc(-c2ccc(Cl)cc2)cs1` [Compound 147]: 201 °C; for `Cc1ccncc1-c1nc(-c2ccc(S(N)(=O)=O)cc2)cs1` [Compound 154, 4-[2-(4-methylpyridin-3-yl)-1,3-thiazol-4-yl]benzenesulfonamide]: 219 °C; for `CC(C)(O)c1ccncc1-c1nc(-c2ccc(Cl)cc2)cs1` [Compound 145, 2-{3-[4-(4-chlorophenyl)-1,3-thiazol-2-yl]pyridin-4-yl}propan-2-ol]: 146 °C.

Take `Cc1ccncc1-c1csc(-c2ccc(S(N)(=O)=O)cc2)n1` [Compound 135, 4-[4-(4-methyl-pyridin-3-yl)-1,3-thiazol-2-yl]benzenesulfonamide]: the melting point lay in the range of 192 to 195 °C. On the same count and under the same terms, for `NS(=O)(=O)c1ccc(-c2csc(-c3cnccc3C(F)(F)F)n2)cc1` [Compound 155, 4-{2-[4-(trifluoromethyl)pyridin-3-yl]-1,3-thiazol-4-yl}benzenesulfonamide] the value was 217 °C. `FC(F)(F)c1ccncc1-c1nc(-c2ccc(Br)cc2)cs1` [Compound 53] displayed a melting point of 69 to 71 °C. Also, the IC50 on Rat C17,20-lyase is below 0.01 µM. In turn, `CNC(=O)c1ccc(-c2nc(-c3cnccc3C)cs2)cc1` [Example 29, N-methyl-4-[4-(4-methylpyridin-3-yl)-1,3-thiazol-2-yl]benzamide] displayed a melting point of 115 °C. With `Fc1ccc(-c2nc(-c3cccnc3)cs2)cc1` [Compound 136], the IC50 at Rat C17,20-lyase is 0.014 µM. `CC(=O)Nc1ccc(-c2nc(-c3cnccc3C)cs2)cc1` [Example 36, N-{4-[4-(4-methylpyridin-3-yl)-1,3-thiazol-2-yl]phenyl}acetamide] yielded a melting point of 205 to 207 °C. Same read-out and setting: for `NC(=O)CNc1ccncc1-c1nc(-c2ccc(Cl)cc2)cs1` [Compound 144] the value was 202 °C; for `CS(=O)(=O)Nc1cccc(-c2csc(-c3cnccc3C(F)(F)F)n2)c1` (as salt: hydrochloride) [Compound 161, N-(3-{2-[4-(trifluoromethyl)pyridin-3-yl]-1,3-thiazol-4-yl}phenyl)methanesulfonamide], 162 to 165 °C. Still for that read-out and setting: the same measure for `Cc1ccc(-c2nc(-c3cnccc3C)sc2F)cc1` [Compound 153, 3-[5-fluoro-4-(4-methylphenyl)-1,3-thiazol-2-yl]-4-methylpyridine]: 96 °C. Compound `COc1ccc(-c2csc(-c3cnccc3C(F)(F)F)n2)cc1` (as salt: HCl) [Compound 64] displayed a melting point of 93 to 95 °C. Same read-out and setting: the same measure for `CNC(=O)c1ccc(C)c(-c2nc(-c3cnccc3C)cs2)c1` [Example 30, N, 4-dimethyl-3-[4-(4-methylpyridin-3-yl)-1,3-thiazol-2-yl]benzamide]: 140 to 143 °C; for `NC(=O)c1ccc(-c2csc(-c3cnccc3C(F)(F)F)n2)cc1` [Compound 164, 4-{2-[4-(trifluoromethyl)pyridin-3-yl]-1,3-thiazol-4-yl}benzamide]: 192 to 193 °C. On the same count and under the same terms, the same measure for `CNC(=O)c1ccc(F)c(-c2nc(-c3cnccc3C)cs2)c1` [Example 33, 4-fluoro-N-methyl-3-[4-(4-methylpyridin-3-yl)-1,3-thiazol-2-yl]benzamide]: 195 to 196 °C; for `Cc1ccncc1-c1csc(-c2ccc(C(N)=O)cc2)n1` [Example 28, 4-[4-(4-methylpyridin-3-yl)-1,3-thiazol-2-yl]benzamide]: 155 to 157 °C.

By IC50 is commonly meant the midpoint of a concentration-inhibition curve. The term melting point denotes the temperature of the solid-liquid transition.
